Laboratory results as given in US20090054412A1, “Treatment of Sleep Disorders” (priority 2007, published 2009).
“Also recorded” adds a separate entry of the source. Marks after values point to notes of the source that are not given here.

Legend:
[1] = Example 1: placebo controlled cross-over study, road noise model, healthy volunteers; type: in vivo, human
Method: A placebo controlled, randomized, double-blind, cross-over study of the effects of the compound of formula (II) was conducted using a road noise model using 12 healthy volunteers. Specifically, the volunteers were subjected to road traffic noise to imitate the effects of insomnia, and the medication was orally administered 5 minutes before the 11 pm bed time in 1.0 mg, 1.5 mg, 2 mg and 2.5 mg doses in the form of a hard gelatine capsule containing the powdered compound of formula (II). Measurements were then taken at 8, 10 and 12 hours after dosing.

[2] = target: T1, rat GABAA receptors α1β2γ2 (Rattus norvegicus, UniProt P18508+P62813); experiment: Stimulation of GABA (EC3-5)-elicited currents in Xenopus oocytes, two-electrode voltage clamp, α1β2γ2; type: cell-based
T1 construct: expressed in transfected cells; host or cells: Xenopus laevis oocytes, cRNA microinjected
T1 sequence (P62813 28-455): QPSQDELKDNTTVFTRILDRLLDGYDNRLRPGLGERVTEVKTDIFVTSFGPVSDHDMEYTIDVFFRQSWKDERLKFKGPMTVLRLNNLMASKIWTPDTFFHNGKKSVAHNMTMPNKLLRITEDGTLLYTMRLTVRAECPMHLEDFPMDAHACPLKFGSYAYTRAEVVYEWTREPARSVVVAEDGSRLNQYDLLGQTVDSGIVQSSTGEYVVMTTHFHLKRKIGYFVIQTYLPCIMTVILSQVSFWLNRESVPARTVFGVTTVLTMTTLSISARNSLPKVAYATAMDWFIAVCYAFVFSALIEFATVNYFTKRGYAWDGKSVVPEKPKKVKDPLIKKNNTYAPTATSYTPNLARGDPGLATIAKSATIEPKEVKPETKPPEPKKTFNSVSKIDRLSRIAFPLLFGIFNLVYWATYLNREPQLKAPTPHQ
T1 sequence (P63138 25-474 partner limits assumed): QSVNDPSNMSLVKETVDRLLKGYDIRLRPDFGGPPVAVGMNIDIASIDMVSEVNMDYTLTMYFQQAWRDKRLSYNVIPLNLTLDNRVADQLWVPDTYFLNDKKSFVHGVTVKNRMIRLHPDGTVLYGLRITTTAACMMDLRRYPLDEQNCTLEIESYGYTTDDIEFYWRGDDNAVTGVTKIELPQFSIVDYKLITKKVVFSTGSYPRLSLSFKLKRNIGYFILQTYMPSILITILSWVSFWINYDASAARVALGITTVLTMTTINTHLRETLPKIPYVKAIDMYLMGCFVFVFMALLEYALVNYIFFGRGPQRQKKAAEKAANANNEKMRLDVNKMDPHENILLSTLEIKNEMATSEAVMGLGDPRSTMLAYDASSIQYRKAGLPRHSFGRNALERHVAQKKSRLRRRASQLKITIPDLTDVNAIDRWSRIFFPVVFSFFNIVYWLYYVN
T1 sequence (P18508 39-466): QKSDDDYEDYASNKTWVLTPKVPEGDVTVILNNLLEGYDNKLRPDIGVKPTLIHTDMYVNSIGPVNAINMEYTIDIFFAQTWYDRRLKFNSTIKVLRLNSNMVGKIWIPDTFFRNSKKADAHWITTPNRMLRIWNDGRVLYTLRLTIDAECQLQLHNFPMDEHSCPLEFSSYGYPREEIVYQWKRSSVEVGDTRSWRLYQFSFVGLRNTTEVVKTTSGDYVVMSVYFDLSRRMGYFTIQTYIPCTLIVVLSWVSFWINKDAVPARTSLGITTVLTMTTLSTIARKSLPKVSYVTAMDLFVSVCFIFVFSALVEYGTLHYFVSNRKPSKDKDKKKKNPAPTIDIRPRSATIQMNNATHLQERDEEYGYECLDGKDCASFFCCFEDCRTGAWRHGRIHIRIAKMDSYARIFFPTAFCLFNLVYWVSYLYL
Text: (§1) 7-Chloro-3-(5-dimethylaminomethyl-[1,2,4]oxadiazol-3-yl)-5methyl-4,5-dihydro-imidazol[1,5,-a][1,4]benzodiazepine-6-one was used to test the effects of the compound of formula (II): […]
(§2) Similar procedures were chosen as for the investigation of other GABAA receptor subunit specific substances (e.g., Baur et al., 2005; Mol. Pharmacol. 68, 787-792).
(§3) Lobes of the ovary containing the follicles were obtained by surgical procedures from female Xenopus laevis. Follicles were singled out using a platinum loop. Fifty nL of cRNA solution at a ratio of αx:β2:γ2 of 1:1:5 (3.3-10 nM αx (x=1,2,3,5); 3.3-10 nM β2; 16.7-50 nM γ2) (Boileau et al., 2002; Neuropharmacology 43, 695-700) were microinjected into Xenopus follicles. Several hours after microinjection the follicles were freed of follicular layers and adhering connective tissue by a collagenase/hypertonic shock procedure (Sigel, 1987; J. Physiol.(Land) 386, 73-90). Oocytes were kept at constant 18° C. until measurement (1-4 days) in a modified Barth solution (88 mM NaCl, 1 mM KCl, 2.4 mM NaHCO3, 10 mM Hepes-NaOH (pH 7.5), 0.82 mM MgSO4×7H2O, 0.34 mM Ca(NO3)2×4H2O, 0.41 mM CaCl2×2H2O, 100 U Penicillin/mL, 100 μg Streptomycin/mL, sterile filtered).
(§4) Currents were measured using a home-built amplifier in combination with a xy-recorder or were digitized using a MacLab/200 (AD Instruments) and stored on a computer. Xenopus oocytes were voltage clamped using the two-electrode voltage clamp technique (electrode resistance about 0.8 MΩ) at −80 mV. The medium contained 90 mM NaCl, 1 mM KCl, 1 mM MgCl2, 1 mM CaCl2, 10 mM Na-Hepes (pH 7.4) and 0.5% DMSO.
(§5) GABA was applied for 20-50 seconds without or in combination with other drugs and a washout period of 4 minutes was allowed to ensure full recovery from desensitization, which was experimentally determined. The perfusion solution (6 mL/min) was applied through a glass capillary with an inner diameter of 1.35 mm, the mouth of which was placed about 0.4 mm from the surface of the oocyte. The rate of solution change under our conditions has been estimated 70% within less than 0.5 s (Sigel et al., 1990; Neuron 5, 703-711). The entire perfusion system and the assay chamber were cleaned between drug applications by washing with DMSO.
(§6) Data is given as mean±SD, except in the figures where data is shown for clarity as mean±SEM. Current stimulation was calculated as follows: stimulation (%)=((I(GABA+modulator)−I(GABA))/I(GABA))×100%, where I is the current amplitude. Where indicated, the stimulation was standardized to the stimulation by 1 μM diazepam (100%). To obtain FIGS. 1-4, values for current stimulation obtained at a given concentration of modulator at a given subunit combination were averaged. The data points were fitted with the equation stimulation=efficacy/(1+(potency/concentration of modulator)). The values given in the Tables (Summary) are obtained by fitting individual curves and subsequently averaging efficacy and potency.
GABA (EC3-5) was applied to an oocyte expressing α1β2γ2 GABAA receptors several times until the current response was stable. The GABA (EC3-5) refers to the effective concentration of GABA, which produces a response that is 3-5% of the maximal response to high concentrations of GABA. Such a low concentration of GABA is chosen in order to better see the potentiating effect of positive allosteric modulators.
GABA was then applied in combination with various concentrations of the compound of formula (II) between 0.3 nM and 3,000 nM to produce a cumulative concentration response curve. […] In each batch of oocytes the stimulation by 1 μM diazepam was determined in five ocytes, extent of stimulation averaged and defined as 100%. Where indicated, stimulation by the compound of formula (II) in each batch of ocytes was expressed as a percentage of this value in the corresponding batch.
GABA (EC3-5) was applied to an oocyte expressing α1β2γ2 GABAA receptors several times until the current response was stable.

[3] = target: T2, rat GABAA receptors α5β2γ2 (Rattus norvegicus, UniProt P18508+P19969); experiment: Stimulation of GABA (EC3-5)-elicited currents in Xenopus oocytes, two-electrode voltage clamp, α5β2γ2; type: cell-based
T2 construct: expressed in transfected cells; host or cells: Xenopus laevis oocytes, cRNA microinjected
T2 sequence (P19969 32-464 limits assumed): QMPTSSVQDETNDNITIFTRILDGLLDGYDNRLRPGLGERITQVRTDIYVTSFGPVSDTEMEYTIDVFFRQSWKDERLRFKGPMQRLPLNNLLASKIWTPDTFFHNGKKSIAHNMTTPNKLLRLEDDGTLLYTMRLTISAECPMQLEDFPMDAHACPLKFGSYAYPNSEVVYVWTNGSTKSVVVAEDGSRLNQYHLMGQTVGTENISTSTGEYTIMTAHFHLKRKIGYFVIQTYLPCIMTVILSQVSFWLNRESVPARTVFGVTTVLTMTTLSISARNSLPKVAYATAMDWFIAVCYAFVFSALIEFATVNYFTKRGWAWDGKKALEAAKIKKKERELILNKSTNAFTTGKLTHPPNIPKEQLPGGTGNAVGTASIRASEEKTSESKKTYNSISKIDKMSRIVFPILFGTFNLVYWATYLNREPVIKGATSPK
T2 sequence (P63138 25-474 partner limits assumed): as the sequence (P63138 25-474 partner limits assumed) above
T2 sequence (P18508 39-466): as the sequence (P18508 39-466) above
Text: as §1, §2, §3, §4, §5, §6
Concentration response curves were also performed with oocytes expressing α2β2γ2, α3β2γ2, or α5β2γ2, after establishing the optimal concentration range as indicated above. […] Averaged data of the individual curves summarizing the effects of the compound of formula (II) are shown below for unstandardized and standardized stimulation.
Concentration response curves were also performed with oocytes expressing α2β2γ2, α3β2γ2, or α5β2γ2.
Current stimulation by diazepam was determined in each batch of oocytes as follows. GABA (EC3-5) was applied until a stable response was obtained. Subsequently, GABA was applied in combination with 1 μM diazepam.

[4] = Example 2: single and repeat dose pharmacokinetic, safety and pharmacodynamic study in healthy volunteers; type: in vivo; settings: human
Method: A single and repeat dose pharmacokinetic safety and pharmacodynamic study of the effects of the compound of formula (II) was conducted using healthy volunteers. The compound of formula (II) was administered orally in 1 mg, 1.5 mg, 2 mg and 2.5 mg doses via a hard gelatine capsule containing the compound in powder form.

[5] = 1.5, 2.0 & 2.5 mg oral, vs placebo
[6] = all 4 doses (1.0, 1.5, 2 and 2.5 mg oral)
[7] = objective residual effects, 8, 10 and 12 hours after dosing

CN(C)Cc1nc(-c2ncn3c2CN(C)C(=O)c2c(Cl)cccc2-3)no1 [compound of formula (II), 7-chloro-3-(5-dimethylaminomethyl-[1,2,4]oxadiazol-3-yl)-5-methyl-4,5-dihydro-imidazo[1,5-a][1,4]benzodiazepine-6-one]
Subjective assessment (LARS): Coordination ([1]; 2.5 mg): No impairment | Subjective assessment (LARS): Mood ([1]; 2.5 mg): No impairment | Subjective assessment (LARS): Sedation ([1]; 2.5 mg): No impairment | WASO 2nd half night (hrs 5-8) [1, 5]: Significantly reduced | WASO full night (hrs 0-8) [1, 5]: Significantly reduced | Sleep Efficiency Index ([1]; 2.0 & 2.5 mg oral, vs placebo): Significantly improved | Total Sleep Time ([1]; 2.0 & 2.5 mg oral, vs placebo): Significantly improved | Performance on cognitive or psychomotor tests ([1]; 8 to 12 hours after dose, data corrected for multiple comparisons): no impairment of performance | Leeds Sleep Evaluation Questionnaire: Quality of sleep ([1]; all 4 doses): Significantly improved at all | Slow Wave Sleep (% and duration) [1, 6]: Significantly increased | Stage IV Sleep (% and duration) [1, 6]: Significantly increased | Sternberg Memory Task (STM) ([1]; at 8 or 12 h): No effect | Continuous Tracking Task - reaction time ([1]; at 10 or 12 h): No effect | Continuous Tracking Task - deviation ([1]; at 8 h): No effect | Leeds Sleep Evaluation Questionnaire: Early morning behaviour (clumsiness & tiredness) ([1]; human, in vivo): No effect | Leeds Sleep Evaluation Questionnaire: Ease of awakening ([1]; human, in vivo): No effect | Choice Reaction Time - Motor Component ([1]; objective residual effects): No effect | Critical Flicker Fusion Test ([1]; objective residual effects): No effect | Word Recall - delayed (WRd) ([1]; objective residual effects): No effect | Rapid Visual Information Processing [1, 7]: No effect | Sustained Attention to Response (SART) [1, 7]: No effect | Leeds Sleep Evaluation Questionnaire: Getting to sleep ([1]; road traffic noise model considered nondiscriminant for sleep onset measures): (No effect)* | Intrinsic activity / type of allosteric modulation ([2]; GABAA receptor benzodiazepine site, relative to diazepam): partial positive allosteric modulator; also recorded: partial agonist | Receptor subtype preference ([2]; at concentrations <100 nM, in comparison to α5β2γ2, α3β2γ2 and α2β2γ2): preference for α1β2γ2 GABAA receptors | EC50 ([2]; α1β2γ2, GABA EC3-5, mean±SD of individually fitted curves, read-out: Potency): 18 ± 6 nM | Standardized Efficacy ([2]; α1β2γ2, standardized to stimulation by 1 μM diazepam (100%)): 62 ± 10% (n = 4) | Efficacy ([2]; α1β2γ2, unstandardized current stimulation): 123 ± 19% (n = 4) | EC50 ([3]; GABA EC3-5, mean±SD of individually fitted curves, read-out: Potency): 53 ± 6 nM | Standardized Efficacy ([3]; standardized to stimulation by 1 μM diazepam (100%)): 69 ± 23% (n = 5) | Efficacy ([3]; unstandardized current stimulation): 135 ± 16% (n = 5) | half-life ([4]; in vivo, po): 3 to 4 h | effect of food on the extent of absorption ([4]; oral): little or no effect | pharmacokinetic profile on day 14 after repeat dosing compared to day 1 ([4]; oral repeat dosing): no significant differences
